Test results published in US9603900B2, “Use of PACAP for the treatment of viral infections in aquatic organisms” (Centro de Ingenieria Genetica y Biotecnologia, priority 2010, dated 2017).
Marks after values point to notes of the source that are not given here.

Key:
[1] = test system: IPNV; settings: daily baths 0.4 and 0.8 μg/mL for two hours during 20 days; cited from earlier work
[2] = test system: IHNV; assay: Rainbow trout experimentally infected with IHNV; type: in vivo, rainbow trout (O. mykiss); settings: amantadine 400/800 μg/L, PACAP 100/200 μg/L or combinations, doses not told apart; untreated infected 26%
Experimental: The fish were challenged by immersion with 5.9×10^3 pfu/ml virus in 20 L of water with aeration for 1 hour.

[3] = test system: IPNV (strain ATCC VR-299); assay: Atlantic salmon experimentally infected with IPNV, treatment by immersion; type: in vivo, Atlantic salmon (Salmo salar); settings: for Increment / Final Weight: 45 days post-infection; for Final Weight: initial 1.2 ± 0.3 g; for survival: 45 days, untreated infected 30%
Experimental: An experiment was conducted to evaluate the effect of the administration of PACAP and PACAP-ribavirin combination for salmon (Salmo salar) experimentally infected with IPNV. Eight experimental groups were performed of 50 fish and a size of 1.2±0.3 g each one and were kept in water at 10-12° C.: • Group 1: untreated fish not exposed to the virus • Group 2: untreated fish, exposed to the virus • Group 3: Group treated with ribavirin at a dose of 400 μg/L of water, exposed to the virus • Group 4: Group treated with ribavirin at a dose of 800 μg/L of water, exposed to the virus • Group 5: Group treated with PACAP at a dose of 100 μg/L of water, exposed to the virus • Group 6: Group treated with PACAP at a dose of 200 μg/L, exposed to the virus • Group 7: Group treated with ribavirin 400 μg/L-PACAP 100 μg/L combination, exposed to the virus • Group 8: Group treated with ribavirin 800 μg/L-PACAP 200 μg/L combination, exposed to the virus.
The animals were fed twice a day with an amount equivalent to 3% of the total corporal weight in each tank. […] Treatments were performed 3 times a week for 20 days. Experimental observations were made during this period and 25 days after the last treatments. During the 45 days of the experiment deaths and abnormal behavior of the fish were monitored. Fish in Groups 1 and 2 were subjected to the same stress produced by the treatment without the antiviral compound or the combination of PACAP-antiviral. The fish in Group 1 received the same procedure with cell culture medium instead of the virus.

[4] = test system: IPNV (strain ATCC VR-299); assay: Rainbow trout experimentally infected with IPNV, treatment by immersion; type: in vivo, rainbow trout (O. mykiss); settings: for Increment with respect to initial weight / Final Weight: 45 days post-infection; for Final Weight: initial 1.6 ± 0.4 g; for survival: 45 days, untreated infected 20%
Experimental: An experiment was conducted to evaluate the effect of administration of PACAP and PACAP-ribavirin combination in rainbow trout experimentally infected with IPNV. Eight experimental groups of 50 fish each at a body weight of 1.6±0.4 g were used. The water temperature was kept at 10-12° C. • Group 1: untreated fish not exposed to the virus • Group 2: untreated fish, exposed to the virus • Group 3: Group treated with ribavirin at a dose of 400 μg/L of water, exposed to the virus • Group 4: Group treated with ribavirin at a dose of 800 μg/L of water, exposed to the virus • Group 5: Group treated with PACAP at a dose of 100 μg/L of water, exposed to the virus • Group 6: Group treated with PACAP at a dose of 200 μg/L of water, exposed to the virus. • Group 7: Group treated with the combination 1 (ribavirina 400 μg/L-PACAP 100 μg/L, exposed to the virus.
Group 8: Group treated with the combination 2 (ribavirina 800 μg/L-PACAP 200 μg/L exposed to the virus.
The animals were fed twice a day with an amount equivalent to 3% of the total corporal weight in each tank. […] Fish in Groups 1 and 2 were subjected to the same stress treatment without the antiviral compound or without the PACAP-antiviral combination. The fish in Group 1 received the same procedure with cell culture medium instead of virus. […] Treatments with PACAP or with PACAP-antiviral combination were performed 3 times a week for 20 days. The first treatments were performed 2 h after viral infection. Experimental observations were made during the first 20 days of treatments and 25 days after it concluded. During the experiment (45 days) deaths and abnormal behavior of the fish were monitored.

[5] = test system: IPNV; assay: Oysters experimentally infected with IPNV, viral titer in hepatopancreas; type: in vivo, oysters of the species Pecten maximus; settings: two weeks after challenge, untreated infected 8.1
Experimental: Eight experimental groups were performed of 30 adult oysters each one and were kept in 250 L of filtered sea water at 10° C.
Treatments were performed 3 times a week for 20 days. Oysters were challenged by exposure to 25 L of water containing 10^7 TCID50 mL^−1 in tanks of 80 L. After 6 h the water was replaced at a slow flow of 1 L/min and at 12 h the flow was increased to 3 L/min.
Two weeks after challenge hepatopancreas samples were taken and determined the viral titer.

[6] = test system: TLR9 coding gene; assay: PACAP38 effect on transcription of TLR9 coding gene in leukocytes (qPCR); type: cell-based, rainbow trout (Oncorhynchus mykiss); settings: 48 hours
Source text: (§1) Juvenile rainbow trout (O. mykiss) was used of approximately 50 grams, VHSV and IPNV free. Fish (n=5) were anesthetized with methanesulfonic acid salt (Sigma, USA) and were removed aseptically, first peripheral blood from the tail vein and then the anterior kidney were isolated from peripheral blood leukocytes from anterior kidney and trout from 5 independently, following the method described by Graham and Secombe (Graham and Secombe ([…]) Immunology 65:293-7).
(§2) The peripheral blood of each fish was diluted 4 times in half Leibovitz (L-15, Gibco, UK) supplemented with penicillin 100 IU/mL, streptomycin (100 μg/mL), heparin (10 units/mL) and 2% FCS and placed carefully on a Percoll gradient to 51%. The ring of cells corresponding to leukocytes was removed carefully, washed twice in L-15 containing 0.1% FCS.
(§3) The anterior kidney was passed through a nylon mesh of 100 μm Leibovitz (L-15, Gibco, UK) supplemented with penicillin 100 IU/mL, streptomycin (100 μg/mL), heparin (10 units/mL) and 2% FCS. The resulting cell suspension was diluted 1:4 in the same medium supplemented L-15 and placed carefully on a Percoll gradient to 51%. The ring of cells corresponding to leukocytes was removed carefully, washed twice in L-15 containing 0.1% FCS.
(§4) The cells were suspended in L-15 with 5% FCS at a concentration of 5×10^6 cells per ml and dispensed in 24-well plates at 1 mL per well. The leukocytes were treated with 3 doses of PACAP38 from Clarias gariepinus obtained by chemical synthesis (10^−10 M, 10^−9 M and 10^−8 M) in duplicate and used as negative control untreated leukocytes dispensed in duplicate.
The levels of Mx, IFN and TLR9 were evaluated 48 hours after treatment. […]
For the synthesis of cDNA it was used a commercial reagent kit uses SuperScript III reverse transcriptase (Invitrogen). Finally, for quantitative PCR reactions (qPCR) was used a mixture of PCR from commercial sources: Power SYBR Green PCR Master Mix (Applied Biosystems). […] The results were expressed as 2^−ΔCt, where ΔCt is equal to the remainder of the gene Ct value minus the assessed value of Ct normalizer gene EF 1α).

[7] = test system: IFN γ coding gene; assay: PACAP38 effect on transcription of IFN γ coding gene in leukocytes (qPCR); type: cell-based, rainbow trout (Oncorhynchus mykiss); settings: 48 hours
Source text: as §1, §2, §3, §4
(§5) The levels of Mx, IFN and TLR9 were evaluated 48 hours after treatment. In order to do so, total RNA was purified from leukocyte cultures treated with PACAP by the method described by Chomczynski and Sacchi (Chomczynski and Sacchi (1987) Anal. Biochem. 162:156-9).
(§6) For the synthesis of cDNA it was used a commercial reagent kit uses SuperScript III reverse transcriptase (Invitrogen). Finally, for quantitative PCR reactions (qPCR) was used a mixture of PCR from commercial sources: Power SYBR Green PCR Master Mix (Applied Biosystems). The qPCR results were normalized against a constitutive endogenous constitutive expression gene specifically elongation 1α (EF 1α) and were performed in triplicate. The results were expressed as 2^−ΔCt, where ΔCt is equal to the remainder of the gene Ct value minus the assessed value of Ct normalizer gene EF 1α).

[8] = test system: Mx protein coding gene; assay: PACAP38 effect on transcription of Mx protein coding gene in leukocytes (qPCR); type: cell-based, rainbow trout (Oncorhynchus mykiss); settings: 48 hours
Source text: as §1, §2, §3, §4, §5, §6

[9] = test system: PAC-1 receptor; assay: PAC-1 receptor expression (qPCR) in head kidney leukocytes treated with poly I:C; type: cell-based, rainbow trout (O. mykiss); settings: poly I:C 30 μg/mL, 4, 24 and 48 hours
Experimental: Juvenile rainbow trout (O. mykiss) was used from 9 to 12 grams and 7 months of age, VHSV and IPNV free. Fish were maintained at 14° C. with water circulation. Food was administered twice a day ad libitum. The virus, VHSV (strain 0771) and IPNV (strain Sp) were propagated in the rainbow trout gonad cell line RTG-2 (Sena and Rio (1975) Infect Immun 11:815-22). Cells were grown in minimal essential medium (MEM, Invitrogen, USA) supplemented with 10% of fetal calf serum (FCS, Invitrogen) containing 100 IU/mL of penicillin and 100 μg/mL of streptomycin. The viruses were inoculated into RTG-2 cells grown in MEM with antibiotics and 2% FCS at 14° C. […] The viral titers were determined in 96-well plates as reported by Reed and Muench (Reed and Muench ([…]) J Hyg 27:280-9). […]
Finally, total RNA was purified from leukocytes cultures using the method described by Chomczynski and Sacchi (Chomczynski and Sacchi (1987) Anal. Biochem. 162:156-9) to evaluate the expression levels of the PAC-1 receptor on leukocytes untreated and treated with Poly I:C or infected with viruses. […] For quantitative PCR reactions (qPCR) was used a mixture of PCR from commercial sources: Power SYBR Green PCR Master Mix (Applied Biosystems). […] The results were expressed as 2^−ΔCt, where ΔCt is equal to the remainder of the gene Ct value minus the assessed value of Ct normalizer gene (EF 1α).

[10] = test system: VPAC-1 receptor; assay: VPAC-1 receptor expression (qPCR) in anterior kidney leukocytes treated with poly I:C; type: cell-based, rainbow trout (Oncorhynchus mykiss); settings: cultured leukocytes, poly I:C, 4, 24 and 48 hours
[11] = Groups 3, 5, 7: ribavirin 400 μg/L, PACAP 100 μg/L or both
[12] = Groups 4, 6, 8: ribavirin 800 μg/L, PACAP 200 μg/L or both
[13] = Groups 3, 5, 7: ribavirin 400 μg/L, PACAP 100 μg/L or combination 1
[14] = Groups 4, 6, 8: ribavirin 800 μg/L, PACAP 200 μg/L or combination 2
[15] = head kidney leukocytes, 10^−9 M

In the case of `C#Cc1c(C(N)=O)ncn1[C@@H]1O[C@H](CO)[C@@H](O)[C@H]1O` [EICAR, 5-ethynyl-1-β-D-ribofuranosylimidazole-carboxamide], the “viral load in liver and spleen (RT-PCR)” value [1] is given as “decrease in viral load”.

`NC12CC3CC(CC(C3)C1)C2` [amantadine] gave a survival [2] of 46%.

For `NC(=O)c1ncn([C@@H]2O[C@H](CO)[C@@H](O)[C@H]2O)n1` [ribavirin], the “day on which early signs of disease were detected” value ([3]; Atlantic salmon, IPNV, both doses, untreated infected: day 6) was 10 days, the Increment [3, 11] was 83% and the “Final Weight” value [3, 11] was 2.2 ± 0.4^c g. For the same molecule, the Increment [3, 12] was 92%, the “Final Weight” value [3, 12] was 2.3 ± 0.5^c g and the survival ([3]; high dose: ribavirin 800 μg/L or PACAP 200 μg/L) was 76%. For the same molecule, the survival ([3]; low dose: ribavirin 400 μg/L or PACAP 100 μg/L) was 70%, the “Increment with respect to initial weight” value [4, 13] was 137% and the “Final Weight” value [4, 13] was 3.8 ± 1.1^c g. For the same molecule, the survival [4, 13] was 68%, the “Increment with respect to initial weight” value [4, 14] was 131% and the “Final Weight” value [4, 14] was 3.7 ± 1.0^c g. For the same molecule, the survival [4, 14] was 70%, the “day on which appetite was recovered” value ([4]; rainbow trout, IPNV, both doses, untreated infected: day 15) was 13 days and the “day on which signs of disease were detected” value ([4]; rainbow trout, IPNV, treatments 3 times a week for 20 days, both doses, untreated infected: day 6) was 8 days. The “IPNV average viral titer in the hepatopancreas” value [5, 13] was 5.4^b log10TCID50 g^−1 and the “IPNV average viral titer in the hepatopancreas” value [5, 14] was 4.3^b log10TCID50 g^−1.

With PACAP38 the “TLR9 expression levels versus negative control” value [6, 15] was “statistically higher than the negative control”, the TLR9 expression levels ([6]; peripheral blood leukocytes, 10^−10-10^−8 M, undetectable in unstimulated cultures) was “detectable levels” and the “dose giving the highest TLR9 expression values” ([6]; peripheral blood leukocytes) was 10^−10 M. The “IFN γ expression levels versus control group” value ([7]; anterior kidney leukocytes, 10^−9 and 10^−8 M) was “statistically higher than the control group”, the “dose giving the best IFN γ expression results” value ([7]; anterior kidney leukocytes) was 10^−9 M and the “IFN γ expression levels” value ([7]; peripheral blood leukocytes, 3 doses (10^−10, 10^−9, 10^−8 M), undetectable in non-treated cultures) was “detectable levels of expression”. For the same molecule, the “dose giving the highest IFN γ expression level” value ([7]; peripheral blood leukocytes) was 10^−9 M, the “Mx protein expression levels relative to negative control” value [8, 15] was “stimulatory effect” and the “Mx protein expression levels relative to negative control” value ([8]; peripheral blood leukocytes, 10^−8 M) was “did not differ”. The “Mx protein expression levels relative to negative control” value ([8]; peripheral blood leukocytes, 10^−9 M, below levels at 10^−10 M) was “stimulatory effect” and the “Mx protein expression levels relative to negative control” value ([8]; peripheral blood leukocytes, 10^−10 M) was “increase”.

In the case of poly I:C, the “levels of PAC-1 expression relative to EF1α” value [9] is reported as “over-expressed” and the “levels of VPAC-1 expression relative to EF1α” value [10] is reported as “over-expressed”.
